Laboratory results published in ChEMBL document CHEMBL4359824, “Dual FLT3 inhibitors: Against the drug resistance of acute myeloid leukemia in recent decade” (Eur J Med Chem, 2019).
pEC50, pIC50, pKd: −log10 of the molar value.

What was measured:
[1] = target: T1, Receptor-type tyrosine-protein kinase FLT3 (Homo sapiens, UniProt P36888); experiment: Inhibition of wild type FLT3 (unknown origin) expressed in mouse BAF3 cells; format: cell-based
T1 sequence (P36888 whole entry): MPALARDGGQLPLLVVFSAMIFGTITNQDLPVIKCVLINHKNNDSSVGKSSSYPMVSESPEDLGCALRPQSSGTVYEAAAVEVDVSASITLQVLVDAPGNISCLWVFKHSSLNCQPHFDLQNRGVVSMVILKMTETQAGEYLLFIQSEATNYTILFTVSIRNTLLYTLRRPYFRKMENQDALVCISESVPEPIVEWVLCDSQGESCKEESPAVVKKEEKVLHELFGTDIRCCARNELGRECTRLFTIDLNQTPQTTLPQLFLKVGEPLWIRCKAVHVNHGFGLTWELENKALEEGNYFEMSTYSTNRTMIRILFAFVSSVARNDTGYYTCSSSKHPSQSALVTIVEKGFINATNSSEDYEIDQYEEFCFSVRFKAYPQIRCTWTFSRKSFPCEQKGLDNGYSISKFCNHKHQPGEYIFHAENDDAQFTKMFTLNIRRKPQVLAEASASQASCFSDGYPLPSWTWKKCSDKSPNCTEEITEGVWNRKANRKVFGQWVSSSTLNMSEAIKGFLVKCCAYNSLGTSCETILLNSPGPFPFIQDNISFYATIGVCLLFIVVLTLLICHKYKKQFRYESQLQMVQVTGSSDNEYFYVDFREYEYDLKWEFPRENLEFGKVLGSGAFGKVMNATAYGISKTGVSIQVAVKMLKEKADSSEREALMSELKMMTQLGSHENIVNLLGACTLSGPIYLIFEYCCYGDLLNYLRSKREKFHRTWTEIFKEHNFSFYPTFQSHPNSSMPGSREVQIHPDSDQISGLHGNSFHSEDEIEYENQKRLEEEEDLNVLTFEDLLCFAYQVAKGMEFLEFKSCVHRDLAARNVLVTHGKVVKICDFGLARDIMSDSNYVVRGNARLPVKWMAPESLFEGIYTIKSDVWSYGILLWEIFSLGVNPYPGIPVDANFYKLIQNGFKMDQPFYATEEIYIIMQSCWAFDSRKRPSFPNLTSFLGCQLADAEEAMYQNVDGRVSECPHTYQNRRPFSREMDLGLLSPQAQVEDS

[2] = system: MV4-11; experiment: Antitumor activity against human MV4-11 cells xenografted in SCID/beige mouse assessed as tumor growth inhibition at 50 mg/kg administered daily relative to control; format: functional; conditions: read-out: TGI
[3] = system: MV4-11; experiment: Antitumor activity against human MV4-11 cells xenografted in SCID/beige mouse assessed as tumor growth inhibition at 75 mg/kg administered daily relative to control; format: functional; conditions: read-out: TGI
[4] = system: MV4-11; experiment: Antitumor activity against human MV4-11 cells xenografted in SCID/beige mouse assessed as tumor growth inhibition at 100 mg/kg administered daily relative to control; format: functional; conditions: read-out: TGI
[5] = target: T1, Receptor-type tyrosine-protein kinase FLT3; experiment: Inhibition of FLT3 (unknown origin) phosphorylation by [gamma-33P]-ATP assay
[6] = target: Dual specificity mitogen-activated protein kinase kinase 1 (Homo sapiens, UniProt Q02750); experiment: Inhibition of MEK1 (unknown origin) phosphorylation by [gamma-33P]-ATP assay
[7] = Cytotoxicity against mouse BAF3(transformed) cells harboring D835G mutant by trypan blue dye exclusion method; format: functional, cell-based
[8] = Cytotoxicity against mouse Ba/F3 FLT3-D835Y cells by trypan blue dye exclusion method; format: functional, cell-based; conditions: BaF3
[9] = Oral bioavailability in dog; format: ADME, organism-based, Canis lupus familiaris; conditions: in vivo
[10] = Oral bioavailability in monkey; format: ADME, organism-based, Macaca mulatta; conditions: rhesus monkey, in vivo
[11] = target: T1, Receptor-type tyrosine-protein kinase FLT3; experiment: Binding affinity to FLT3 (unknown origin)
[12] = target: Serine/threonine-protein kinase pim-1 (Homo sapiens, UniProt P11309); experiment: Binding affinity to Pim-1 (unknown origin)
[13] = target: Serine/threonine-protein kinase pim-2 (Homo sapiens, UniProt Q9P1W9); experiment: Binding affinity to Pim-2 (unknown origin)
[14] = target: Serine/threonine-protein kinase pim-3 (Homo sapiens, UniProt Q86V86); experiment: Binding affinity to Pim-3 (unknown origin)
[15] = system: MOLM-13; experiment: Antiproliferative activity against human MOLM13 cells after 48 hrs by CellTiter-Glo assay; format: functional, cell-based; conditions: MOLM-13, 48 h
[16] = system: MV4-11; experiment: Antiproliferative activity against human MV4-11 cells after 48 hrs by CellTiter-Glo assay; format: functional, cell-based; conditions: MV4-11, 48 h
[17] = system: MV4-11; experiment: Cytotoxicity against human MV4-11 cells; format: functional, cell-based
[18] = system: MOLM-13; experiment: Cytotoxicity against human MOLM13 cells; format: functional, cell-based
[19] = system: MOLM-14; experiment: Cytotoxicity against human MOLM14 cells; format: functional, cell-based
[20] = system: MV4-11; experiment: Cytotoxicity against human MV4-11 cells expressing FLT3 ITD mutant; format: functional, cell-based
[21] = system: MOLM-13; experiment: Cytotoxicity against human MOLM13 cells expressing FLT3 ITD mutant; format: functional, cell-based

Sequence of Serine/threonine-protein kinase pim-2 (Q9P1W9 whole entry): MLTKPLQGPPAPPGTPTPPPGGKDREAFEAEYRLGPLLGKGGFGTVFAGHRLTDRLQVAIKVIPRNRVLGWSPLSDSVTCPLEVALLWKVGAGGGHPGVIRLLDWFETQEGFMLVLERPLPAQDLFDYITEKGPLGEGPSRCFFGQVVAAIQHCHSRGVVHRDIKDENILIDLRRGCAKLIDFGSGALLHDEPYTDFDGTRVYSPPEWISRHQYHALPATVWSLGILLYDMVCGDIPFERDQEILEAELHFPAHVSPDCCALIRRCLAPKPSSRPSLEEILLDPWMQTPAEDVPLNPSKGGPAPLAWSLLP
Sequence of Serine/threonine-protein kinase pim-1 (P11309 whole entry): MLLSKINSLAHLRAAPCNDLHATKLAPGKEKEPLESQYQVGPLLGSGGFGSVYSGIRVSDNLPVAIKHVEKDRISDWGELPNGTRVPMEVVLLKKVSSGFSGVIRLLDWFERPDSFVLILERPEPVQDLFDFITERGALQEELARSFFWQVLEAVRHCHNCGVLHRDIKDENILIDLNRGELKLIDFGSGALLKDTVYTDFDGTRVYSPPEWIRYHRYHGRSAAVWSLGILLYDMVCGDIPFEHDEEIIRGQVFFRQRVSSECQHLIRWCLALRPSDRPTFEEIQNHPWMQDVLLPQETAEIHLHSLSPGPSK
Sequence of Dual specificity mitogen-activated protein kinase kinase 1 (Q02750 whole entry): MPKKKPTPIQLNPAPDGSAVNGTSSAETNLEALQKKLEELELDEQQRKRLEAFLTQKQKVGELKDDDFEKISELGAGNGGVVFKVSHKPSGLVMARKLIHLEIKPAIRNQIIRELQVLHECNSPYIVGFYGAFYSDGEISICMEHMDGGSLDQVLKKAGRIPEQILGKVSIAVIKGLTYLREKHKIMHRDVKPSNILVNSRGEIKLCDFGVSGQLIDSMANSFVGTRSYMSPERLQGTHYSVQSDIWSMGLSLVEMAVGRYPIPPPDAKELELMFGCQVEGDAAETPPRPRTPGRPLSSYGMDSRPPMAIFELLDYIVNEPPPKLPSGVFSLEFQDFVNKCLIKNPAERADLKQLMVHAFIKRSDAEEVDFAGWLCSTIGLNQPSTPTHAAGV

Compound: COc1cccc2nc(-c3cccs3)nc(NN3C(=O)C=C(C)C3=O)c12 [AS-602868]
- pIC50 [1]: 6.21

Compound: CC(C)n1c(C2CCNCC2)nc2c([N+](=O)[O-])c(Br)c(Br)cc21 [DAPOLSERTIB]
- inhibition in vivo at 50 mg/kg [2]: 67%
- inhibition in vivo at 75 mg/kg [3]: 74%
- inhibition in vivo at 100 mg/kg [4]: 82%

Compound: CCNc1cc(O)c2c(c1)/C=C/C[C@H](O)[C@H](O)C(=O)/C=C\[C@@H](C)[C@H](C)OC2=O [E-6201]
- pIC50 [5]: 8.30
- pIC50 [6]: 7.30
- pIC50 [7]: 5.34
- pIC50 [8]: 4.59

Compound: COc1cc2c(N3CCN(C(=O)Nc4ccc(OC(C)C)cc4)CC3)ncnc2cc1OCCCN1CCCCC1 [TANDUTINIB]
- bioavailability [9]: 50%
- bioavailability [10]: 100%

Compound: C[C@]12O[C@H](C[C@H](O)[C@H]1O)n1c3ccccc3c3c4c(c5c6ccccc6n2c5c31)C(=O)NC4=O
- pKd [11]: 8.49
- pKd [12]: 8.54
- pKd [13]: 8.51
- pKd [14]: 9.40

Compound: C1=N/C2=N/c3ccc(OCCN4CCCC4)c(c3)COC/C=C/COCc3cccc(c3)C(=C1)N2 [PACRITINIB]
- pIC50 [15]: 7.33
- pIC50 [16]: 7.17

Compound: Cc1n[nH]c2ccc(-c3cncc(OC[C@@H](N)Cc4ccccc4)c3)cc12
- pEC50 [17]: 7.04
- pEC50 [18]: 6.77
- pEC50 [19]: 7.22

Compound: CC1(COc2ccc3c(c2)ncn3-c2ccc3cccc(N4CCC(N)CC4)c3n2)COC1 [CRENOLANIB]
- pIC50 [20]: 8.82
- pIC50 [21]: 8.31
